These results are taken from ChEMBL document CHEMBL3039007, “Structure-based identification of OATP1B1/3 inhibitors” (Mol Pharmacol, 2013).

Where “and” joins values, the source holds several entries; their conditions need not be identical. Identical values can stand only once.

Data set [1] concerns the target T1, Solute carrier organic anion transporter family member 1B3 (Homo sapiens, UniProt Q9NPD5).
T1 sequence (Q9NPD5 whole entry): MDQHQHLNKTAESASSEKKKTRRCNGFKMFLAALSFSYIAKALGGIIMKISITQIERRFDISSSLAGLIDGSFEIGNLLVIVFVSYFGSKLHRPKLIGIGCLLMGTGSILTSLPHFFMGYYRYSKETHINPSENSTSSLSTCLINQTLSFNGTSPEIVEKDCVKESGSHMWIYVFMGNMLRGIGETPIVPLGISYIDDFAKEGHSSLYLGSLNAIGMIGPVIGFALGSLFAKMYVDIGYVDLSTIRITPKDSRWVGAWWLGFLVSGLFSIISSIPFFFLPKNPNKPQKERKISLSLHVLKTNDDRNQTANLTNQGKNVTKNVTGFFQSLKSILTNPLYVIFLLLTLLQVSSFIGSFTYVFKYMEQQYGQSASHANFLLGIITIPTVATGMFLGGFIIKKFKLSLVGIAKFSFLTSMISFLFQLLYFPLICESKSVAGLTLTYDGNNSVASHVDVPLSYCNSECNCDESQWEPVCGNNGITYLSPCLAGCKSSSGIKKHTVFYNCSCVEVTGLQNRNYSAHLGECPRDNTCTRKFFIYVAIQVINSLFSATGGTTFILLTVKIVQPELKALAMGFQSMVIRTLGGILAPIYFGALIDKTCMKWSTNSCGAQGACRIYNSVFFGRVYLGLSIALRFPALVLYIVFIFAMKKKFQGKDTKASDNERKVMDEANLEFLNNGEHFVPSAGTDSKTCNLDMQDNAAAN
Particulars: chinese hamster, cho, 10 µM.

Data set [2] concerns the target T2, Solute carrier organic anion transporter family member 1B1 (Homo sapiens, UniProt Q9Y6L6).
T2 sequence (Q9Y6L6 whole entry): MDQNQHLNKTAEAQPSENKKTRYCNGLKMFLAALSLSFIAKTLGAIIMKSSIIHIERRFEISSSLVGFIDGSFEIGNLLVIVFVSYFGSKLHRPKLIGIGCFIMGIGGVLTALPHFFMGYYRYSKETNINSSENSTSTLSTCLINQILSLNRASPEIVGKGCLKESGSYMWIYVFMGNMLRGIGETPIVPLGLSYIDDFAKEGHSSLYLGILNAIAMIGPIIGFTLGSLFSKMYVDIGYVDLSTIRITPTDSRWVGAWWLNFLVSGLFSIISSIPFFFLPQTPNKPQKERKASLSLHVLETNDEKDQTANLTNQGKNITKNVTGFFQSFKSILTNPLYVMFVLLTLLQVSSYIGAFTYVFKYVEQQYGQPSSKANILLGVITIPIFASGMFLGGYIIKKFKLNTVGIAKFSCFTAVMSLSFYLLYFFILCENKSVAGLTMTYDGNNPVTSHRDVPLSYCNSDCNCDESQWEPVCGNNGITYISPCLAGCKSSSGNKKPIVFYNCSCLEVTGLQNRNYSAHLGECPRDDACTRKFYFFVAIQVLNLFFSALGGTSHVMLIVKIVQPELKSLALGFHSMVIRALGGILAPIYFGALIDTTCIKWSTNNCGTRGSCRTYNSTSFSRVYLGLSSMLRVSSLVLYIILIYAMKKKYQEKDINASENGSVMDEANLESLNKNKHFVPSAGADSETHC
Particulars: chinese hamster, cho, 10 µM.

For `COc1cc2c(cc1-c1coc3c4c(c(OC)cc3c1=O)OC(C)(C)C=C4)OCO2` [ICHTHYNONE], the residual activity in data set [1] was determined as 118.8%; in data set [2] it was 105.6%.
For `O=[N+]([O-])NC1=NCCN1Cc1ccc(Cl)nc1` [IMIDACLOPRID] the same measures were 90.03% and 73.94%.
Taken in the same sequence, the figures for `CN(C)CCCN1c2ccccc2CCc2ccccc21.Cl` [IMIPRAMINE HYDROCHLORIDE] were 92.77% and 61.55%.
For `CC1Cc2ccccc2N1NC(=O)c1ccc(Cl)c(S(N)(=O)=O)c1` (stereo unspecified) [INDAPAMIDE] the same measures were 97.5% and 80.06%.
For the compound `O=C(O)c1cc2ccccc2[nH]1` [INDOLE-2-CARBOXYLIC ACID], the residual activity in data set [1] is given as 117.8%; in data set [2] it was 121.4%.
For `OCc1c[nH]c2ccccc12` [INDOLE-3-CARBINOL] the same measures were 121.9% and 88.32%.
Taken in the same sequence, the figures for `COc1ccc2c(c1)c(CC(=O)O)c(C)n2C(=O)c1ccc(Cl)cc1` [INDOMETHACIN] were 50.32% and 97.38%.
For `CC(C(=O)O)c1ccc(N2Cc3ccccc3C2=O)cc1` (stereo unspecified) [INDOPROFEN] the same measures were 96.18% and 97.2%.
With `OC[C@H]1O[C@@H](n2cnc3c(O)ncnc32)[C@H](O)[C@@H]1O` [INOSINE], the residual activity was 107.3% in data set [1] and 110.7% in data set [2].
Taken in the same sequence, the figures for `O=C(CCCCC(=O)Nc1c(I)cc(I)c(C(=O)O)c1I)Nc1c(I)cc(I)c(C(=O)O)c1I` [IODIPAMIDE] were 60.87% and 90.55%.
For `Oc1c(I)cc(I)c2cccnc12` [IODOQUINOL] the same measures were 87.46% and 86.7%.
Take `CCC(Cc1c(I)cc(I)c(N)c1I)C(=O)O` (stereo unspecified) [IOPANOIC ACID]: the values for the residual activity in data set [1] and in data set [2] were 59.57% and 31.11%, respectively.
Taken in the same sequence, the figures for `CC(C)Oc1ccc2c(=O)c(-c3ccccc3)coc2c1` [IPRIFLAVONE] were 84.86% and 137.7%.
For `CC(C)NNC(=O)c1ccncc1.O=S(=O)(O)O` [IPRONIAZID SULFATE] the same measures were 101.8% and 122.7%.
As for `CCCCC1=NC2(CCCC2)C(=O)N1Cc1ccc(-c2ccccc2-c2nnn[nH]2)cc1` [IRBESARTAN], the values for the residual activity in data set [1] and in data set [2] were 47.18% and 76.05%, respectively.
For `COc1c(O)cc(O)cc1O` [IRETOL] the same measures were 111.8% and 89.16%.
For `COc1cc(-c2coc3cc(O[C@@H]4O[C@H](CO)[C@@H](O)[C@H](O)[C@H]4O)c(OC)c(O)c3c2=O)cc(O)c1OC` [IRIDIN] the same measures were 90.79% and 114.5%.
Taken in the same sequence, the figures for `COc1cc(-c2coc3cc(OC)c(OC)c(OC)c3c2=O)cc(OC)c1OC` [IRIGENIN TRIMETHYL ETHER] were 91.27% and 216.2%.
For `COc1cc(-c2coc3cc(OCc4ccccc4)c(OC)c(O)c3c2=O)cc(O)c1OC` [IRIGENIN, 7-BENZYL ETHER], the residual activity was found to be 36.98% in data set [1] and 60.69% in data set [2].
Taken in the same sequence, the figures for `COc1cc(-c2coc3cc(OCc4ccccc4)c(OC)c(O)c3c2=O)cc(OCc2ccccc2)c1OC` [IRIGENIN, DIBENZYL ETHER] were 93.33% and 92.09%.
Taken in the same sequence, the figures for `O=c1c(-c2cc(O)c(O)c(O)c2)coc2cc(O)c(O)c(O)c12` [IRIGENOL] were 92.26% and 71.59%.
Taken in the same sequence, the figures for `CC(=O)Oc1cc(-c2coc3cc(OC(C)=O)c(OC(C)=O)c(OC(C)=O)c3c2=O)cc(OC(C)=O)c1OC(C)=O` [IRIGINOL HEXAACEATATE] were 94.12% and 102.1%.
Consider `COc1cc2occc2c2oc(=O)ccc12` [ISOBERGAPTENE], for which the figures for the residual activity in data set [1] and in data set [2] were 113.9% and 127.3%, respectively.
In the case of `CC(C)Cn1c(=O)n(C)c(=O)c2[nH]cnc21` [ISOBUTYLMETHYLXANTHINE], the residual activity was 85.37% and 74.61% in data set [1]; 102.2% and 126.3% in data set [2].
Consider `COc1ccc2c(c1O)-c1c(OC)c(OC)cc3c1[C@H](C2)N(C)CC3` [ISOCORYDINE], for which the residual activity in data set [1] was 102.1%; in data set [2], 115.2%.
Take `Cc1cc(=O)c2c(O)cc(O)c(C)c2o1` [ISOEUGENITOL]: the values for the residual activity in data set [1] and in data set [2] were 101% and 129.2%, respectively.
Taken in the same sequence, the figures for `COc1ccc(-c2cc(=O)c3c(O)cc(O)c(-c4cc(-c5cc(=O)c6c(O)cc(O)cc6o5)ccc4OC)c3o2)cc1` [ISOGINKGETIN] were 63.51% and 36.16%.
For `Cl.O=C(O)C1=CCNCC1` [ISOGUVACINE HYDROCHLORIDE] the same measures were 103.5% and 113.5%.
Taken in the same sequence, the figures for `C=C1CCC2C(CC2(C)C)C(=O)CCC1O` (stereo unspecified) [ISOKOBUSONE] were 82.48% and 93.72%.
With `O=C(/C=C/c1ccc(O)cc1)c1ccc(O)cc1O` [ISOLIQUIRITIGENIN], the figures for the residual activity in data set [1] and in data set [2] were 119.2% and 210.9%, respectively.
Consider `NNC(=O)c1ccncc1` [ISONIAZID], for which the residual activity worked out at 98.94% in data set [1] and 88.4% in data set [2].
Taken in the same sequence, the figures for `COc1cc(O)ccc1C(C)=O` [ISOPEONOL] were 84.87% and 60.41%.
Taken in the same sequence, the figures for `COc1c2ccoc2c(OC)c2oc(=O)ccc12` [ISOPIMPINELLIN] were 29.02% and 84.51%.
For `CC(C)[N+](C)(CCC(C(N)=O)(c1ccccc1)c1ccccc1)C(C)C.[I-]` [ISOPROPAMIDE IODIDE] the same measures were 91.67% and 83.43%.
As to `CC(C)NCC(O)c1ccc(O)c(O)c1.Cl` (stereo unspecified) [ISOPROTERENOL HYDROCHLORIDE], the residual activity was 88.72% in data set [1] and 105.2% in data set [2].
With `COC(=O)[C@H]1[C@H]2C[C@H]3c4[nH]c5cc(OC)ccc5c4CCN3C[C@H]2C[C@@H](OC(=O)c2cc(OC)c(OC)c(OC)c2)[C@@H]1OC` [ISORESERPINE], the residual activity turned out to be 42.22% in data set [1] and 38.5% in data set [2].
Taken in the same sequence, the figures for `COc1cc2c(cc1OC)[C@@H]1C(=O)c3ccc4oc(C(C)C)cc4c3O[C@@H]1CO2` [ISOROTENONE] were 87.44% and 78.62%.
As to `C/C=C/c1ccc2c(c1)OCO2` [ISOSAFROLE], the residual activity was 79.83% in data set [1] and 75.01% in data set [2].
In the case of `O=[N+]([O-])O[C@H]1CO[C@H]2[C@@H]1OC[C@H]2O[N+](=O)[O-]` [ISOSORBIDE DINITRATE], the residual activity in data set [1] stood at 114.2%; in data set [2], 86.27%.
For `COc1ccc(-c2coc3c(OC)c(OC)cc(OC)c3c2=O)cc1` [ISOTECTORIGENIN TRIMETHYL ETHER] the same measures were 118.2% and 133.5%.
For `COc1ccc(-c2coc3c(OC)c(OC)cc(O)c3c2=O)cc1` [ISOTECTORIGENIN, 7-METHYL ETHER] the same measures were 105% and 135.9%.
As for `CC1=C(/C=C/C(C)=C/C=C/C(C)=C\C(=O)O)C(C)(C)CCC1` [ISOTRETINOIN], the values for the residual activity in data set [1] and in data set [2] were 51.47% and 32.24%, respectively.
Taken in the same sequence, the figures for `Cc1cc(NC(=O)C2=C(O)c3ccccc3S(=O)(=O)N2C)no1` [ISOXICAM] were 86.6% and 111.2%.

As usually defined, the residual activity is the signal under treatment as a percentage of the control signal.
